These results are taken from patent publication US8895695B2, “Template-fixed beta-hairpin peptidomimetics with CXCR4 antagonizing activity” (priority 2003, dated 2014).

Like-named read-outs stand apart in the source and are kept apart here. Numbered stars: 1 amine (or outer) side, 2 acyl side, 3 side chain; on linkers, the order of the positions; unused ones are H or OH. Bridge positions count the residues as written; N and C are the ends. Square brackets hold non-standard residues; d marks the D form. Peptide text beside a SMILES is read from it. X3 = COCCOCCOCC(=O)N[C@H]1C[C@@H](C(=O)[*:2])N([*:1])C1; Phe(4-F) = N[C@@H](Cc1ccc(F)cc1)C(=O)O; 2Nal = N[C@@H](Cc1ccc2ccccc2c1)C(=O)O; Cit = NC(=O)NCCC[C@H](N)C(=O)O; Orn = NCCC[C@H](N)C(=O)O Bounds are passed on as bounds.

Series [1] concerns human red blood cells (hRBC). The series can be described thus: Hemolysis. It is filed as cell-based. The procedure: The peptides were tested for their hemolytic activity against human red blood cells (hRBC). Fresh hRBC were washed three times with phosphate buffered saline (PBS) by centrifugation for 10 min at 2000×g. Peptides at a concentration of 100 μM were incubated with 20% v/v hRBC for 1 hour at 37° C. The final erythrocyte concentration was approximately 0.9×10^9 cells per ml. A value of 0% resp. 100% cell lysis was determined by incubation of the hRBC in the presence of PBS alone and respectively 0.1% Triton X-100 in H2O. The samples were centrifuged and the supernatant was 20-fold diluted in PBS buffer and the optical density (OD) of the sample at […] was measured. The 100% lyses value (OD540H2O) gave an OD540 of approximately 1.3-1.8. Percent hemolysis was calculated as follows: (OD540peptide/OD540H2O)×100%.

A short description of another series: in vitro. The conditions noted are these: human.
Another series concerns the target CXCR4 (Homo sapiens, UniProt P61073). Nature of the series: Ca2+-assay method 2 (Flexstation, SDF-1 induced calcium mobilization). Type of series: cell-based. Set-up: expressed in transfected cells; host or cells: mouse pre-B cell line 300-19. The conditions noted are these: method 2 (Ex. 54-160), mouse pre-B cell line 300-19 with human CXCR4, 10 nM SDF-1. The procedure:
2.2. Ca^2+-Assay: CXCR4-Antagonizing Activity of the Peptides.
The cells were batch loaded with the Calcium 3 Assay kit (Molecular Devices) in assay buffer (Hanks Balanced salt solution, HBSS, 20 mM HEPES, pH 7.4, 0.1% BSA) for 1 h at room temperature and then 200,000 labeled cells were dispensed into black 96 well assays plates (Costar No. 3603). A 20-fold concentrated solution of peptide in assay buffer was added to the cells and the whole plate was centrifuged to settle the cells to the bottom of the wells. Calcium mobilization induced by 10 nM stromal-derived factor-1 (SDF-1) was measured in the Flexstation 384 (excitation, 485 nM; emission, 525 nM) for 90 seconds. A maximal change in fluorescence response above baseline was used to calculate antagonist activity. The data for dose response curves (antagonist concentration versus % maximum response) were fitted to a four parameter logistic equation using SoftmaxPro 4.6 (Molecular Devices), from which IC50% values were calculated.

Setting [2] is: read-out: IC50 (nM) Ca^2+ assay.
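For GI50 in this document: MTT reduction read as absorbance at 595 nm, blank-corrected and expressed as percent growth relative to the time-zero cell reading, triplicate wells per concentration.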

CXCR4, sequence (P61073 whole entry): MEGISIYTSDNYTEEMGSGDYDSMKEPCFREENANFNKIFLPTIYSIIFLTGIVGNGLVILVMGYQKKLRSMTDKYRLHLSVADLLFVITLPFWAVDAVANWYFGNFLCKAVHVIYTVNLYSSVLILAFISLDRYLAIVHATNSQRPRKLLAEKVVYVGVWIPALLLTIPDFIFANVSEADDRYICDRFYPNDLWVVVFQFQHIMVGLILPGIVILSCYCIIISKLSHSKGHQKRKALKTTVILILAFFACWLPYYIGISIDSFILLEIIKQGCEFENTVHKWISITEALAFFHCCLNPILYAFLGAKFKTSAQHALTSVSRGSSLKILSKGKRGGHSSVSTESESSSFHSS

With `C[C@@H](O)[C@@H]1NC(=O)[C@@H]2CCCN2C(=O)[C@H]2CCCN2C(=O)[C@H](CCCCN)NC(=O)[C@H](CCC(N)=O)NC(=O)[C@H](Cc2ccc(O)cc2)NC(=O)[C@@H]2CSSC[C@H](NC(=O)[C@H](CCCNC(N)=O)NC(=O)[C@H](CCCNC(=N)N)NC1=O)C(=O)N[C@@H](CCCNC(=N)N)C(=O)NCC(=O)N1CCC[C@@H]1C(=O)N[C@@H](CCCNC(=N)N)C(=O)N[C@@H](CCCNC(=N)N)C(=O)N[C@@H](Cc1ccc3ccccc3c1)C(=O)N2` [Ex. 67] (cyclo(TR[Cit]CRG[dP]RR[2Nal]CYQK[dP]P); disulfide 4-11), the Hemolysis at 100 μM in series [1] is 0.2%. Also, in the series “in vitro”, halving of growth (GI50 at 48 h) required 49 µM. The IC50 at CXCR4 (setting [2]) stood at 2.4 nM.
In the case of `N=C(N)NCCC[C@@H]1NC(=O)[C@@H]2CSSC[C@H](NC(=O)[C@H](Cc3ccc4ccccc4c3)NC(=O)[C@H](CCCNC(=N)N)NC(=O)[C@H](CCCNC(=N)N)NC(=O)[C@H]3CCCN3C(=O)CNC1=O)C(=O)N[C@@H](Cc1ccc(O)cc1)C(=O)N[C@@H](CCC(N)=O)C(=O)N[C@@H](CCCCN)C(=O)N1CCC[C@@H]1C(=O)N1CCC[C@H]1C(=O)N[C@@H](Cc1c[nH]cn1)C(=O)N[C@@H](CCCNC(=N)N)C(=O)N[C@@H](CCCNC(N)=O)C(=O)N2` [Ex. 64] (cyclo(HR[Cit]CRG[dP]RR[2Nal]CYQK[dP]P); disulfide 4-11), in series [1], the Hemolysis at 100 μM was 0.3%. In “in vitro”, the GI50 at 48 h turned out to be 66 µM. Moreover, at CXCR4 (setting [2]), the IC50 amounted to 3.3 nM.
As to `C[C@@H](O)[C@@H]1NC(=O)[C@H](CCCNC(=N)N)NC(=O)[C@H](Cc2ccc(O)cc2)NC(=O)[C@@H]2CCCN2C(=O)[C@H]2CCCN2C(=O)[C@H](CCCCN)NC(=O)[C@H](CCC(N)=O)NC(=O)[C@H](Cc2ccc(O)cc2)NC(=O)[C@@H]2CSSC[C@H](NC1=O)C(=O)N[C@@H](CCCNC(=N)N)C(=O)NCC(=O)N1CCC[C@@H]1C(=O)N[C@@H](CCCNC(=N)N)C(=O)N[C@@H](CCCNC(=N)N)C(=O)N[C@@H](Cc1ccc(O)cc1)C(=O)N2` [Ex. 145] (cyclo(YRTCRG[dP]RRYCYQK[dP]P); disulfide 4-11), the Hemolysis at 100 μM in series [1] worked out at 0%. The GI50 at 48 h in “in vitro” was 97 µM. Moreover, the half-maximal inhibitory concentration (IC50) at CXCR4 (setting [2]) worked out at 0.38 nM.
Consider `N=C(N)NCCC[C@@H]1NC(=O)[C@@H]2CSSC[C@H](NC(=O)[C@H](Cc3c[nH]c4ccccc34)NC(=O)[C@H](CCCNC(=N)N)NC(=O)[C@H](CCCNC(=N)N)NC(=O)[C@H]3CCCN3C(=O)CNC1=O)C(=O)N[C@@H](Cc1ccc(O)cc1)C(=O)N[C@@H](CCCNC(N)=O)C(=O)N[C@@H](CCCCN)C(=O)N1CCC[C@@H]1C(=O)N1CCC[C@H]1C(=O)N[C@@H](Cc1ccc(O)cc1)C(=O)N[C@@H](CCCCN)C(=O)N[C@@H](CCCNC(N)=O)C(=O)N2` [Ex. 106] (cyclo(YK[Cit]CRG[dP]RRWCY[Cit]K[dP]P); disulfide 4-11), for which the Hemolysis at 100 μM in series [1] came to 0%. For the same compound, the 50% growth inhibitory concentration (GI50) at 48 h in “in vitro” came to 83 µM. Besides, on CXCR4 (setting [2]), the IC50 stood at 3.1 nM.
For the compound `C[C@@H](O)[C@@H]1NC(=O)[C@H]2CCCN2C(=O)CNC(=O)[C@H](CCCNC(=N)N)NC(=O)[C@@H]2CSSC[C@H](NC(=O)[C@H](Cc3ccc4ccccc4c3)NC(=O)[C@H](CCCNC(=N)N)NC1=O)C(=O)N[C@@H](Cc1ccc(O)cc1)C(=O)N[C@@H](CCC(N)=O)C(=O)N[C@@H](CCCCN)C(=O)N1CCC[C@@H]1C(=O)N1CCC[C@H]1C(=O)N[C@@H](Cc1ccc(O)cc1)C(=O)N[C@@H](CCCNC(=N)N)C(=O)N[C@@H](CCCNC(N)=O)C(=O)N2` [Ex. 56] (cyclo(YR[Cit]CRG[dP]TR[2Nal]CYQK[dP]P); disulfide 4-11), halving of growth in the series “in vitro” (GI50 at 48 h) required 60 µM. Also, the IC50 on CXCR4 (setting [2]) turned out to be 0.74 nM.
As for `N=C(N)NCCC[C@@H]1NC(=O)[C@@H]2CSSC[C@H](NC(=O)[C@H](Cc3ccc4ccccc4c3)NC(=O)[C@H](CCCNC(=N)N)NC(=O)[C@H](Cc3ccc(F)cc3)NC(=O)[C@H]3CCCN3C(=O)CNC1=O)C(=O)N[C@@H](Cc1ccc(O)cc1)C(=O)N[C@@H](CCC(N)=O)C(=O)N[C@@H](CCCCN)C(=O)N1CCC[C@@H]1C(=O)N1CCC[C@H]1C(=O)N[C@@H](Cc1ccc(O)cc1)C(=O)N[C@@H](CCCNC(=N)N)C(=O)N[C@@H](CCCNC(N)=O)C(=O)N2` [Ex. 76] (cyclo(YR[Cit]CRG[dP][Phe(4-F)]R[2Nal]CYQK[dP]P); disulfide 4-11), in series [1], the Hemolysis at 100 μM is 0.1%. In “in vitro”, this compound had a 50% growth inhibitory concentration (GI50) at 48 h above 100 µM. At CXCR4 (setting [2]), the 50% inhibitory concentration (IC50) amounted to 5.6 nM.
For `N=C(N)NCCC[C@@H]1NC(=O)[C@@H]2CSSC[C@H](NC(=O)[C@H](Cc3ccc4ccccc4c3)NC(=O)[C@H](CCCNC(=N)N)NC(=O)[C@H](CCCNC(=N)N)NC(=O)[C@H]3CCCN3C(=O)CNC1=O)C(=O)N[C@@H](Cc1ccc(O)cc1)C(=O)N[C@@H](CO)C(=O)N[C@@H](CCCCN)C(=O)N1CCC[C@@H]1C(=O)N1CCC[C@H]1C(=O)N[C@@H](Cc1ccc(O)cc1)C(=O)N[C@@H](CCCNC(=N)N)C(=O)N[C@@H](CCCNC(N)=O)C(=O)N2` [Ex. 81] (cyclo(YR[Cit]CRG[dP]RR[2Nal]CYSK[dP]P); disulfide 4-11), in series [1], the Hemolysis at 100 μM is 0%. This compound also gave a GI50 at 48 h in the series “in vitro” of 45 µM. In addition, the IC50 at CXCR4 (setting [2]) amounted to 4.9 nM.
`N=C(N)NCCC[C@@H]1NC(=O)[C@@H]2CSSC[C@H](NC(=O)[C@H](Cc3ccc4ccccc4c3)NC(=O)[C@H](CCCNC(=N)N)NC(=O)[C@H](CCCNC(=N)N)NC(=O)[C@H]3CCCN3C(=O)CNC1=O)C(=O)N[C@@H](Cc1ccc(O)cc1)C(=O)N[C@@H](CCC(N)=O)C(=O)N[C@@H](CCCCN)C(=O)N1CCC[C@@H]1C(=O)N1CCC[C@H]1C(=O)N[C@@H](CCCNC(=N)N)C(=O)N[C@@H](CCCNC(=N)N)C(=O)N[C@@H](CCCNC(N)=O)C(=O)N2` [compound 63] (cyclo(RR[Cit]CRG[dP]RR[2Nal]CYQK[dP]P); disulfide 4-11) gave a Hemolysis at 100 μM in series [1] of 0.2%. This compound yielded a GI50 at 48 h in the series “in vitro” of 58 µM. Besides, the IC50 on CXCR4 (setting [2]) amounted to 2 nM.
`N=C(N)NCCC[C@@H]1NC(=O)[C@@H]2CSSC[C@H](NC(=O)[C@H](Cc3c[nH]c4ccccc34)NC(=O)[C@H](CCCN)NC(=O)[C@H](CCCNC(=N)N)NC(=O)[C@H]3CCCN3C(=O)CNC1=O)C(=O)N[C@@H](Cc1ccc(O)cc1)C(=O)N[C@@H](CCCNC(N)=O)C(=O)N[C@@H](CCCCN)C(=O)N1CCC[C@@H]1C(=O)N1CCC[C@H]1C(=O)N[C@@H](Cc1ccc(O)cc1)C(=O)N[C@@H](CCCNC(=N)N)C(=O)N[C@@H](CCCNC(N)=O)C(=O)N2` [Ex. 117] (cyclo(YR[Cit]CRG[dP]R[Orn]WCY[Cit]K[dP]P); disulfide 4-11) showed a Hemolysis at 100 μM in series [1] of 0%. For the same compound, the 50% growth inhibitory concentration (GI50) at 48 h in the series “in vitro” turned out to be 44 µM. Further, the half-maximal inhibitory concentration (IC50) on CXCR4 (setting [2]) worked out at 3.4 nM.
Take `CN1CC(=O)N[C@@H](CCCCN)C(=O)N2CCC[C@@H]2C(=O)N2CCC[C@H]2C(=O)N[C@@H](Cc2ccc(O)cc2)C(=O)N[C@@H](CCCNC(=N)N)C(=O)N[C@@H](CCCNC(N)=O)C(=O)N[C@H]2CSSC[C@H](NC(=O)[C@H](Cc3ccc4ccccc4c3)NC(=O)[C@H](CCCNC(=N)N)NC(=O)[C@H](CCCNC(=N)N)NC(=O)[C@H]3CCCN3C(=O)CNC(=O)[C@H](CCCNC(=N)N)NC2=O)C(=O)N[C@@H](Cc2ccc(O)cc2)C1=O` [Ex. 129]: the Hemolysis at 100 μM in series [1] stood at 0%. Also, the GI50 at 48 h in “in vitro” is 23 µM. Further, at CXCR4 (setting [2]), the concentration for half-maximal inhibition (IC50) turned out to be 10.9 nM.
In series [1], `N=C(N)NCCC[C@@H]1NC(=O)[C@@H]2CSSC[C@H](NC(=O)[C@H](Cc3ccc4ccccc4c3)NC(=O)[C@H](CCCNC(=N)N)NC(=O)[C@H](CCCNC(=N)N)NC(=O)[C@H]3CCCN3C(=O)CNC1=O)C(=O)N[C@@H](Cc1ccc(O)cc1)C(=O)N[C@@H](CCC(N)=O)C(=O)N[C@@H](CCCCN)C(=O)N1CCC[C@@H]1C(=O)N1CCC[C@H]1C(=O)N[C@@H](Cc1ccc(O)cc1)C(=O)N[C@@H](CCCNC(=N)N)C(=O)N[C@@H](CCCCN)C(=O)N2` [Ex. 94] (cyclo(YRKCRG[dP]RR[2Nal]CYQK[dP]P); disulfide 4-11) yielded a Hemolysis at 100 μM of 0.2%. This compound also registered a GI50 at 48 h in the series “in vitro” of 45 µM. For the same compound, the half-inhibitory concentration (IC50) at CXCR4 (setting [2]) was determined as 2.5 nM.
The compound `COCCOCCOCC(=O)N[C@H]1C[C@H]2C(=O)N[C@@H](Cc3ccc(O)cc3)C(=O)N[C@@H](CCCNC(=N)N)C(=O)N[C@@H](CCCNC(N)=O)C(=O)N[C@H]3CSSC[C@H](NC(=O)[C@H](Cc4c[nH]c5ccccc45)NC(=O)[C@H](CCCNC(=N)N)NC(=O)[C@H](CCCNC(=N)N)NC(=O)[C@H]4CCCN4C(=O)CNC(=O)[C@H](CCCNC(=N)N)NC3=O)C(=O)N[C@@H](Cc3ccc(O)cc3)C(=O)N[C@@H](CCCNC(N)=O)C(=O)N[C@@H](CCCCN)C(=O)N3CCC[C@@H]3C(=O)N2C1` [Ex. 116] (cyclo(YR[Cit]CRG[dP]RRWCY[Cit]K[dP][X3]); disulfide 4-11) displayed a Hemolysis at 100 μM in series [1] (percent hemolysis, 100 μM peptide, 20% v/v hRBC, 1 hour at 37° C.) of 0%. This compound also yielded a GI50 at 48 h in the series “in vitro” of 20 µM. For the same compound, the IC50 at CXCR4 (IC50 (nM) Ca^2+ assay) is 14.5 nM.
